Laboratory results from patent US9302999B2, “Substituted triazoles as herbicides” (E. I. DU PONT DE NEMOURS AND COMPANY, priority 2012, dated 2016).

What was measured:
Type in all cases: in vivo
[1] = tested on: velvetleaf (Abutilon theophrasti); assay: Test F pre-/postemergence: velvetleaf; conditions: Preemergence
Summary of the method: (§1)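 Visual response scores, 0 meaning no effect and 100 complete control, were assigned against untreated controls 14 to 21 days after treatment. Test chemicals in a surfactant-containing non-phytotoxic solvent were applied preemergence to seeded silt loam soil or postemergence to 2–18 cm plants in peat-based medium.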

[2] = tested on: beggarticks (hairy beggarticks, Bidens pilosa); assay: Test F pre-/postemergence: beggarticks
Summary of the method: as §1

[3] = tested on: crabgrass, large (large crabgrass, Digitaria sanguinalis); assay: Test F pre-/postemergence: crabgrass, large; conditions: Preemergence
Summary of the method: as §1

[4] = tested on: foxtail, giant (giant foxtail, Setaria faberii); assay: Test F pre-/postemergence: foxtail, giant; conditions: Preemergence
Summary of the method: as §1

[5] = 16 g ai/ha, scale 0 to 100, 0 no effect, 100 complete control
[6] = 31 g ai/ha, scale 0 to 100, 0 no effect, 100 complete control
[7] = Preemergence, 31 g ai/ha, scale 0 to 100, 0 no effect, 100 complete control
[8] = Preemergence, 125 g ai/ha, scale 0 to 100
[9] = Preemergence, 250 g ai/ha, scale 0 to 100

SMILES: CCc1nn(-c2ccc(F)c(F)c2)nc1Oc1ccnc(C(F)(F)F)c1 [Compound 171]
- Plant response rating, Velvetleaf [1, 5]: 0
- Plant response rating, Velvetleaf [1, 6]: 0
- Plant response rating, Velvetleaf ([1]; 125 g ai/ha, scale 0 to 100): 15
- Plant response rating, Velvetleaf ([1]; 250 g ai/ha, scale 0 to 100): 50
- Plant response rating, Beggarticks ([2]; Preemergence, 16 g ai/ha, scale 0 to 100, 0 no effect, 100 complete control): 0
- Plant response rating, Beggarticks [2, 7]: 0
- Plant response rating, Beggarticks ([2]; Preemergence, 62 g ai/ha, scale 0 to 100): 0
- Plant response rating, Beggarticks [2, 8]: 0
- Plant response rating, Beggarticks [2, 9]: 0
- Plant response rating, Crabgrass, Large [3, 5]: 75
- Plant response rating, Crabgrass, Large [3, 6]: 98
- Plant response rating, Crabgrass, Large ([3]; 62 g ai/ha, scale 0 to 100): 98
- Plant response rating, Crabgrass, Large ([3]; 125 g ai/ha, scale 0 to 100): 100
- Plant response rating, Crabgrass, Large ([3]; 250 g ai/ha, scale 0 to 100): 100
- Plant response rating, Foxtail, Giant [4, 5]: 40
- Plant response rating, Foxtail, Giant [4, 6]: 60
- Plant response rating, Foxtail, Giant ([4]; 62 g ai/ha, scale 0 to 100): 100
- Plant response rating, Foxtail, Giant ([4]; 125 g ai/ha, scale 0 to 100): 100
- Plant response rating, Foxtail, Giant ([4]; 250 g ai/ha, scale 0 to 100): 100

SMILES: CCCc1nn(-c2ccc(F)c(F)c2)nc1Oc1ccnc(C(F)(F)F)c1 [Compound 172]
- Plant response rating, Velvetleaf [1, 6]: 0
- Plant response rating, Velvetleaf ([1]; 125 g ai/ha, scale 0 to 100): 80
- Plant response rating, Velvetleaf ([1]; 250 g ai/ha, scale 0 to 100): 100
- Plant response rating, Beggarticks ([2]; Postemergence, 250 g ai/ha, scale 0 to 100): 60
- Plant response rating, Beggarticks ([2]; Postemergence, 31 g ai/ha, scale 0 to 100): 40
- Plant response rating, Beggarticks ([2]; Postemergence, 125 g ai/ha, scale 0 to 100): 50
- Plant response rating, Beggarticks [2, 7]: 15
- Plant response rating, Beggarticks [2, 8]: 25
- Plant response rating, Beggarticks [2, 9]: 25
- Plant response rating, Crabgrass, Large [3, 6]: 100
- Plant response rating, Crabgrass, Large ([3]; 125 g ai/ha, scale 0 to 100): 100
- Plant response rating, Crabgrass, Large ([3]; 250 g ai/ha, scale 0 to 100): 100
- Plant response rating, Foxtail, Giant [4, 6]: 100
- Plant response rating, Foxtail, Giant ([4]; 125 g ai/ha, scale 0 to 100): 100
- Plant response rating, Foxtail, Giant ([4]; 250 g ai/ha, scale 0 to 100): 100
